According to PubChem BioAssay AID2060493 (Molecular Pharmacology Branch, DTP, NCI, 2025):
Several values for one entry are separate records, joined by “and”; a condition that tells them apart may be missing. Identical values can stand only once.

System: 616215-338-R-J1-PDC tumor spheroids, viability
Assay: Anticancer human tumor 616215-338-R-J1-PDC patient-derived colon adenocarcinoma cell line growth inhibition [GQUAD]
Conditions: spheroids with HUVEC and MSC; for viability, T/C: stronger effect = lower value
Description: DNA G-quadruplex Stabilizer Agents in Combinations in Complex Spheroids
A high-throughput screen of multi-cell type tumor spheroids was designed to identify active combinations of DNA G-quadruplex stabilizer agents and targeted small molecules. Complex spheroids include a stromal component modeled by human endothelial cells (HUVEC) and fibroblasts modeled by human mesenchymal stem cells (MSCs). The concentration ranges selected for each drug and investigational agent were based upon clinically achievable concentrations if the clinical Cmax of the agent was known.
Compounds. The drugs and investigational agents: pidnarulex (CX-5461; NSC782164), APTO-253 (NSC789042), BRACO-19 (NSC847499), peposertib (NSC802822), ceralasertib (NSC780249), elimusertib (NSC800525), camonsertib (NSC841442), AZD-1390 (NSC803789), olaparib (NSC753686), talazoparib (NSC767125), ART-558 (NSC835418), sotorasib (NSC818433), MRTX-1133 (NSC836407), SN-38 (NSC673596), topotecan (NSC609699), etoposide (NSC141540), doxorubicin (NSC123127), gemcitabine (NSC613327), 5-fluorouracil (NSC19893), paclitaxel (NSC125973), vemurafenib (NSC761431), panobinostat (NSC761190), R-306465 (JNJ-16241199; NSC773264), adavosertib (NSC754352), TP-3654 (NSC805149), carboplatin (NSC241240), KSQ-4279 (NSC840948), and staurosporine (NSC755774) were obtained from the National Cancer Institute (NCI) Developmental Therapeutics Program Chemical Repository (34). The FDA-approved anticancer drug set is available from the NCI Developmental Therapeutics Program. […] The stock solutions were prepared in dimethyl sulfoxide (DMSO, Sigma-Aldrich, St. Louis, MO, cat. D2650) at 800-fold the tested concentration and stored at -70 degrees C prior to their use. All drugs and investigational agents were tested over a range starting from a high concentration at or near the clinical Cmax and decreasing in half-log increments. If the clinical Cmax for an agent had not been determined, the highest concentration tested was 10 microM.
2.3 Cell Culture. All cells were maintained in an incubator at 37 degrees C and 5% CO2 with 95% humidity. The PDC lines were cultured according to standard operating procedures established by the NCI PDMR. All PDCs were thawed and cultured in Matrigel-coated flasks prepared with a working solution of 1X Ham's F-12 nutrient mix, without supplementation (Invitrogen, cat. 11765054), 100 U/mL penicillin-streptomycin (Invitrogen, cat. 15140122), and 2.5% Matrigel (Corning Inc., cat. 354248) for the first three passages. The 857933-349-R-J2-PDC line was cultured in 6C/Colon 1B media, which includes advanced DMEM/F-12 (Thermo Fisher Scientific, cat. 12634028), 10 mM HEPES (Thermo Fisher Scientific, cat. 15630080), 1X GlutaMAX supplement (Thermo Fisher Scientific, cat. 35050061), 0.1 mg/mL primocin (InvivoGen, cat. ant-pm-2), 10% defined fetal bovine serum, heat inactivated (HyClone Laboratories Inc., cat. SH30070.03HI), 50% L-WRN conditioned media (ATCC, cat. CRL-3276), 1.25 mM N-Acetyl-L-cysteine (Sigma-Aldrich, cat. A9165), 10 mM nicotinamide (Sigma-Aldrich, cat. N0636), 1X B-27 supplement (Thermo Fisher Scientific, cat. 17504044), 1X N-2 supplement (Thermo Fisher Scientific, cat. 17502048), 10 microM Y-27632 dihydrochloride (Tocris Bioscience, cat. 1254), and 50 ng/mL human EGF recombinant protein (Thermo Fisher Scientific, cat. PHG0311). The 485176-168-R4-J1-PDC line was cultured in Panc media, which includes all 6C/Colon 1B media components plus 100 ng/mL human FGF-10 (Thermo Fisher Scientific, cat. 100-26), 500 nM SB-431542 (Selleckchem, cat. S1067), and gastrin (Tocris, cat. 3006).
[…]

[1] = curve of first compound, second compound 0.0316 µM
[2] = curve of first compound, second compound 0.1 µM
[3] = curve of first compound, second compound 0.316 µM
[4] = curve of first compound, second compound 1 µM
[5] = curve of first compound, second compound 3.16 µM
[6] = curve of first compound, second compound 10 µM
[7] = second compound 0.0316 µM, first compound 0.0316 µM
[8] = second compound 0.0316 µM, first compound 0.1 µM
[9] = second compound 0.0316 µM, first compound 0.316 µM
[10] = second compound 0.0316 µM, first compound 1 µM
[11] = second compound 0.0316 µM, first compound 3.16 µM
[12] = second compound 0.0316 µM, first compound 10 µM
[13] = second compound 0.1 µM, first compound 0.0316 µM
[14] = second compound 0.1 µM, first compound 0.1 µM
[15] = second compound 0.1 µM, first compound 0.316 µM
[16] = second compound 0.1 µM, first compound 1 µM
[17] = second compound 0.1 µM, first compound 3.16 µM
[18] = second compound 0.1 µM, first compound 10 µM
[19] = second compound 0.316 µM, first compound 0.0316 µM
[20] = second compound 0.316 µM, first compound 0.1 µM
[21] = second compound 0.316 µM, first compound 0.316 µM
[22] = second compound 0.316 µM, first compound 1 µM
[23] = second compound 0.316 µM, first compound 3.16 µM
[24] = second compound 0.316 µM, first compound 10 µM
[25] = second compound 1 µM, first compound 0.0316 µM
[26] = second compound 1 µM, first compound 0.1 µM
[27] = second compound 1 µM, first compound 0.316 µM
[28] = second compound 1 µM, first compound 1 µM
[29] = second compound 1 µM, first compound 3.16 µM
[30] = second compound 1 µM, first compound 10 µM
[31] = second compound 3.16 µM, first compound 0.0316 µM
[32] = second compound 3.16 µM, first compound 0.1 µM
[33] = second compound 3.16 µM, first compound 0.316 µM
[34] = second compound 3.16 µM, first compound 1 µM
[35] = second compound 3.16 µM, first compound 3.16 µM
[36] = second compound 3.16 µM, first compound 10 µM
[37] = second compound 10 µM, first compound 0.0316 µM
[38] = second compound 10 µM, first compound 0.1 µM
[39] = second compound 10 µM, first compound 0.316 µM
[40] = second compound 10 µM, first compound 1 µM
[41] = second compound 10 µM, first compound 3.16 µM
[42] = second compound 10 µM, first compound 10 µM
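Also: spheroids exposed to agents for 7 days before readout.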
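For viability, T/C in this document: percent viability relative to DMSO vehicle control wells taken as 100%.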

`CC(C)(O)C1CCC(Nc2ccc3ncc(-c4cccc(C(F)(F)F)c4)n3n2)CC1` (stereo unspecified) + Cc1[nH]c2ccc(F)cc2c1-c1nc2c3cccnc3c3ncccc3c2[nH]1 showed an IC50 [1] of 610 nM, an IC50 [2] of 596 nM and an IC50 [3] of 591 nM. The IC50 [4] was 644 nM, the IC50 [5] was 584 nM and the IC50 [6] was 566 nM. The viability, T/C [7] was 99.1%, the viability, T/C [8] was 103% and the viability, T/C [9] was 103%. It also gave a viability, T/C [10] of 11.2%, a viability, T/C [11] of 0.5% and a viability, T/C [12] of 1.09%. It also gave a viability, T/C [13] of 93.7%, a viability, T/C [14] of 109% and a viability, T/C [15] of 94.3%. The viability, T/C [16] was 13.8%, the viability, T/C [17] was 0.24% and the viability, T/C [18] was 2.5%. The viability, T/C [19] was 92%, the viability, T/C [20] was 97% and the viability, T/C [21] was 97.6%. For the same molecule, the viability, T/C [22] was 11.7%, the viability, T/C [23] was 2.23% and the viability, T/C [24] was 1.14%. The viability, T/C [25] was 97%, the viability, T/C [26] was 89.9% and the viability, T/C [27] was 91.6%. The viability, T/C [28] was 24.3%, the viability, T/C [29] was 0.55% and the viability, T/C [30] was 1.33%. The viability, T/C [31] was 98.8%, the viability, T/C [32] was 103% and the viability, T/C [33] was 95.2%. For the same molecule, the viability, T/C [34] was 10.4%, the viability, T/C [35] was 0.45% and the viability, T/C [36] was 0.48%. For the same molecule, the viability, T/C [37] was 90.1%, the viability, T/C [38] was 94.4% and the viability, T/C [39] was 93.2%. For the same molecule, the viability, T/C [40] was 8.43%, the viability, T/C [41] was 0.77% and the viability, T/C [42] was 0.56%.

`CCc1c2c(nc3ccc(O)cc13)-c1cc3c(c(=O)n1C2)COC(=O)[C@]3(O)CC` was tested, and the viability, T/C (compound 0.000999 µM) was 93.6% and 102% (2×), the viability, T/C (compound 0.00316 µM) was 75.4% and 93.8% and 87.9% and the viability, T/C (compound 0.00999 µM) was 63.3% and 61.1% and 66.4%. The viability, T/C (compound 0.0316 µM) was 24.8% and 30.3% and 29.4%, the viability, T/C (compound 0.0999 µM) was 22% and 16.5% and 16.2% and the viability, T/C (compound 0.316 µM) was 14.9% and 9.21% and 12.4%. For the same molecule, the IC50 (curve of compound) was 13.9 nM and 15.6 nM and 16.3 nM.

`Nc1ccn(C2OC(CO)C(O)C2(F)F)c(=O)n1` (stereo unspecified) + Cc1cnc(CNC(=O)c2c(=O)c3ccc(N4CCCN(C)CC4)nc3n3c2sc2ccccc23)cn1 was tested, and the IC50 [1] was < 31.6 nM, the IC50 [2] was 109 nM and the IC50 [3] was < 31.6 nM. The IC50 [4] was < 31.6 nM, the IC50 [5] was < 31.6 nM and the IC50 [6] was < 31.6 nM. The viability, T/C [7] was 35.4%, the viability, T/C [8] was 35.6% and the viability, T/C [9] was 16.7%. For the same molecule, the viability, T/C [10] was 14.6%, the viability, T/C [11] was 17.8% and the viability, T/C [12] was 14.1%. It also gave a viability, T/C [13] of 48.2%, a viability, T/C [14] of 56.5% and a viability, T/C [15] of 20.4%. The viability, T/C [16] was 16.5%, the viability, T/C [17] was 19.9% and the viability, T/C [18] was 14.9%. The viability, T/C [19] was 45.8%, the viability, T/C [20] was 26.8% and the viability, T/C [21] was 17.7%. It also gave a viability, T/C [22] of 20.3%, a viability, T/C [23] of 15.1% and a viability, T/C [24] of 17%. It also gave a viability, T/C [25] of 32.5%, a viability, T/C [26] of 30.7% and a viability, T/C [27] of 24.1%. For the same molecule, the viability, T/C [28] was 28.2%, the viability, T/C [29] was 18.3% and the viability, T/C [30] was 18.4%. For the same molecule, the viability, T/C [31] was 28.4%, the viability, T/C [32] was 41.8% and the viability, T/C [33] was 24%. The viability, T/C [34] was 20.4%, the viability, T/C [35] was 16.4% and the viability, T/C [36] was 23.5%. The viability, T/C [37] was 28.4%, the viability, T/C [38] was 28.8% and the viability, T/C [39] was 22.4%. The viability, T/C [40] was 21%, the viability, T/C [41] was 20% and the viability, T/C [42] was 18.5%.
